The values below come from US10570117B2, “Phenylimidazole compound” (Otsuka Pharmaceutical Factory, Inc., priority 2015, dated 2020).

Data set [1] is described as follows: Solubility in gastric juice or intestinal juice model fluid (precipitation method using DMSO). The format is physicochemical. The note with it: room temperature. The procedure, abridged: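 Compound in DMSO added to JP disintegration test fluid 1 (pH 1.2) or fluid 2 (pH 6.8) and shaken 24 h at room temperature. After filtration, dissolved concentration (μg/mL) determined by UV absorbance against compound calibration curves.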

For data set [2], the system named is lipoprotein lipase (LPL) gene. Kind of data set: LPL mRNA elevating action (RT-PCR quantification of LPL mRNA in C2Cl2 cells). Type of data set: cell-based, mouse. The note with it: Mus musculus, 24 h, compound 10 μM, ratio relative to the amount of LPL mRNA in cells with DMSO only, read-out: Rate of increase in LPL mRNA. The procedure, abridged: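 Mouse striated-muscle C2Cl2 cells in DMEM with 10% FBS exposed to compounds at 10 μM for 24 h. LPL mRNA quantified by RT-PCR and real-time PCR (20 cycles), expressed as ratio to DMSO-only cells set at 1.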

[3] abbreviates: pH 1.2, simulated gastric fluid, kinetic from dmso stock, 1st fluid for Disintegration Test of Japanese Pharmacopoeia (pH: 1.2), read-out: Solubility (μg/mL) 1st fluid.
The mark [4] stands for this setting: pH 6.8, kinetic from dmso stock, 2nd fluid for Disintegration Test of Japanese Pharmacopoeia (pH: 6.8), read-out: Solubility (μg/mL) 2nd fluid.

The structures appear in SMILES notation. Converted amounts (≈) assume the structure as drawn. Like-named read-outs stand apart in the source and are kept apart here.

For orientation: melting point means the temperature, or range, at which the solid turns liquid. For `COc1cc(OCc2ccnc(C(F)(F)F)c2)ccc1-c1cnc(-c2ccc(F)nc2)[nH]1` [Example 135], the melting point is 212 to 244 °C. In addition, in data set [1] (setting [3]), the solubility at 24 h was 6.8 µg/mL (≈ 15.3 µM). For the same compound, the solubility at 24 h in data set [1] (setting [4]) stood at 2.2 µg/mL (≈ 4.95 µM). Further, in data set [2], the fold induction at 10 µM is 3.14.

For `COc1cc(OCc2ccncc2C(F)(F)F)ccc1-c1cnc(-c2ccc(F)nc2)[nH]1` [Example 136], the melting point lay in the range of 181 to 192 °C. Besides, the solubility at 24 h in data set [1] (setting [3]) was greater than 89 µg/mL. For the same compound, the solubility at 24 h in data set [1] (setting [4]) was 2.2 µg/mL (≈ 4.95 µM). Moreover, the fold induction at 10 µM in data set [2] amounted to 2.71.

Compound `COc1cc(OCc2ncc(Cl)cc2F)ccc1-c1cnc(-c2ccc(F)nc2)[nH]1` [Example 141] returned a melting point of 174 to 176 °C. Besides, the solubility at 24 h in data set [1] (setting [3]) was 10.1 µg/mL (≈ 23.6 µM). For the same compound, in data set [1] (setting [4]), the solubility at 24 h is less than 0.3 µg/mL. In data set [2], the fold induction at 10 µM was found to be 2.33.

`COc1cc(OCc2ccc(C(F)(F)F)nc2)ccc1-c1nc(-c2ccc(Cl)nc2)n(C)c1C` [Example 152, 2-chloro-5-[4-[2-methoxy-4-((6-(trifluoromethyl)pyridin-3-yl)methoxy)phenyl]-1,5-dimethyl-1H-imidazol-2-yl]pyridine] registered a melting point of 185 to 188 °C. For the same compound, the solubility at 24 h in data set [1] (setting [3]) was greater than 98 µg/mL. In addition, the solubility at 24 h in data set [1] (setting [4]) is less than 0.3 µg/mL. In addition, the fold induction at 10 µM in data set [2] was 3.3.

`COc1cc(OCc2ccc(C(F)(F)F)nc2)ccc1-c1c(C)nc(-c2ccc(Cl)nc2)n1C` [Example 153, 2-chloro-5-[5-[2-methoxy-4-((6-(trifluoromethyl)pyridin-3-yl)methoxy)phenyl]-1,4-dimethyl-1H-imidazol-2-yl]pyridine]: the melting point lay within 148 to 150 °C. The solubility at 24 h in data set [1] (setting [3]) was greater than 98 µg/mL. In data set [1] (setting [4]), the solubility at 24 h came out at 1.7 µg/mL (≈ 3.48 µM). Besides, the fold induction at 10 µM in data set [2] was 4.61.

Regarding `COc1cc(OCc2ccc(C(F)(F)F)nc2)ccc1-c1nc(-c2ccc(Cl)nc2)n(CC2CC2)c1C` [Example 154], the melting point lay in the range of 110 to 112 °C. The solubility at 24 h in data set [1] (setting [3]) is 104 µg/mL (≈ 196 µM). Further, in data set [1] (setting [4]), the solubility at 24 h was 2 µg/mL (≈ 3.78 µM). Also, the fold induction at 10 µM in data set [2] is 5.78.

On to `COc1cc(OCc2ccc(C(F)(F)F)nc2)ccc1-c1c(C)nc(-c2ccc(Cl)nc2)n1CC1CC1` [Example 155], for which the melting point is 164 to 166 °C. For the same compound, in data set [1] (setting [3]), the solubility at 24 h is greater than 106 µg/mL. In data set [1] (setting [4]), the solubility at 24 h worked out at 3 µg/mL (≈ 5.67 µM). The fold induction at 10 µM in data set [2] is 3.06.

On to `COc1cc(OCc2ccc(C(F)(F)F)cn2)ccc1-c1c(C)nc(-c2ccc(Cl)nc2)n1CC1CC1` [Example 157], for which the melting point fell in the range of 145 to 148 °C. For the same compound, the solubility at 24 h in data set [1] (setting [3]) was 106 µg/mL (≈ 199 µM). Further, in data set [1] (setting [4]), the solubility at 24 h stood at 1.9 µg/mL (≈ 3.59 µM). Also, the fold induction at 10 µM in data set [2] amounted to 4.05.

For the compound `COc1cc(OCc2ccc(C(F)(F)F)nc2)ccc1-c1c(C)nc(-c2ccc(F)nc2)n1C` [Example 161], the melting point lay within 123 to 126 °C. Besides, in data set [1] (setting [3]), the solubility at 24 h is greater than 94 µg/mL. Further, in data set [1] (setting [4]), the solubility at 24 h came to 3.9 µg/mL (≈ 8.25 µM). Moreover, the fold induction at 10 µM in data set [2] came out at 3.06.

Take `COc1cc(OCc2ccc(C(F)(F)F)cn2)ccc1-c1c(C)nc(-c2ccc(Cl)nc2)n1C` [Example 165]: the melting point lay in the range of 152 to 154 °C. In data set [1] (setting [3]), the solubility at 24 h was 96 µg/mL (≈ 196 µM). Further, the solubility at 24 h in data set [1] (setting [4]) came out at 2.1 µg/mL (≈ 4.3 µM). Besides, the fold induction at 10 µM in data set [2] stood at 3.34.

The compound `COCn1cc(-c2ccc(OCc3ccc(C(F)(F)F)cn3)cc2OC)nc1-c1ccc(Cl)nc1` [Example 167] returned a melting point of 138 to 140 °C. For the same compound, the solubility at 24 h in data set [1] (setting [3]) is 100 µg/mL (≈ 199 µM). In addition, the solubility at 24 h in data set [1] (setting [4]) was found to be 0.4 µg/mL (≈ 0.792 µM). Moreover, in data set [2], the fold induction at 10 µM worked out at 2.23.

Take `COc1cc(OCc2ccc(C(F)(F)F)cn2)ccc1-c1nc(-c2ccc(F)nc2)n(C)c1Cl` [Example 169, 2-[[4-(5-chloro-2-(6-fluoropyridin-3-yl)-1-methyl-1H-imidazol-4-yl)-3-methoxyphenoxy]methyl]-5-(trifluoromethyl)pyridine]: the melting point was 158 to 160 °C (dec.). Moreover, the solubility at 24 h in data set [1] (setting [3]) was 96.3 µg/mL (≈ 195 µM). For the same compound, in data set [1] (setting [4]), the solubility at 24 h is less than 0.4 µg/mL. Besides, in data set [2], the fold induction at 10 µM was 3.12.
